Measured values published in publication PMC6915869, “Immunosuppressive effects of a novel potassium channel toxin Ktx-Sp2 from Scorpiops Pocoki” (Cell & Bioscience, 2019).

Tested on: Ca^2+ influx in Jurkat T cells
Assay: Live cell Ca^2+ imaging (Fura-2) in Jurkat T cells
Assay type: cell-based, human
Conditions: 10 μM CPA, absence of extracellular Ca^2+, Fura-2
Experimental: Jurkat T cells were loaded with 4 μM Fura-2 AM (Life Technologies) for 60 min at 37 °C. Cells were then washed 3 times and incubated in Hank’s Balanced Salt Solution (HBSS) for 30 min at room temperature before use. Fluorescence at 340 nm and 380 nm excitation wavelengths was recorded on an inverted Nikon Ti-E microscope equipped with 340, 360 and 380 nm excitation filter wheels using NIS-Elements imaging software (Nikon Instruments Inc., Melville, NY, USA). Fura-2 ratios (F340/F380) reflect changes in [Ca^2+]i upon stimulation. Data were obtained from 100 to 250 cells in time-lapse images from each coverslip.
To test this hypothesis we performed live cell Ca^2+ imaging using the Ca^2+ indicator dye Fura-2 to determine the effect of Ktx-Sp2 on [Ca^2+]i in the presence of intracellular Ca^2+ store depletion by cyclopiazonic acid (CPA), an inhibitor of the sarcoplasmic reticulum Ca^2+-ATPase. […] When 2 mM Ca^2+ was added to the Ca^2+-free HBSS, we observed a large Ca^2+ influx into the cells. […] At 10 μM, Ktx-Sp2 decreased the F340/F380 ratio from 0.14 ± 0.02 to 0.05 ± 0.01 (n = 278) (Fig. 5b).

CC(=O)C1=C(O)[C@@H]2[C@H]3c4c[nH]c5cccc(c45)C[C@H]3C(C)(C)N2C1=O [CPA, cyclopiazonic acid, reference compound]
rise of [Ca^2+]i induced by CPA: relative small, transient rise of [Ca^2+]i
